Patent publication US12492188B2, “1H-benzo[D]imidazole derivatives as TLR9 inhibitors for the treatment of fibrosis” (BRISTOL-MYERS SQUIBB COMPANY, priority 2020, dated 2025)
Read-outs that look alike come from different tables or passages of the source.

Legend:
Type in all cases: cell-based
human TLR9 = biological target: T1, human TLR9 (Homo sapiens, UniProt Q9NR96); assay: TLR9 inhibition reporter assay (HEK-Blue cells, secreted embryonic alkaline phosphatase reporter)
T1 construct: host or cells: HEK-Blue cells (HEK293-derived reporter line)
T1 sequence (Q9NR96 26-1032): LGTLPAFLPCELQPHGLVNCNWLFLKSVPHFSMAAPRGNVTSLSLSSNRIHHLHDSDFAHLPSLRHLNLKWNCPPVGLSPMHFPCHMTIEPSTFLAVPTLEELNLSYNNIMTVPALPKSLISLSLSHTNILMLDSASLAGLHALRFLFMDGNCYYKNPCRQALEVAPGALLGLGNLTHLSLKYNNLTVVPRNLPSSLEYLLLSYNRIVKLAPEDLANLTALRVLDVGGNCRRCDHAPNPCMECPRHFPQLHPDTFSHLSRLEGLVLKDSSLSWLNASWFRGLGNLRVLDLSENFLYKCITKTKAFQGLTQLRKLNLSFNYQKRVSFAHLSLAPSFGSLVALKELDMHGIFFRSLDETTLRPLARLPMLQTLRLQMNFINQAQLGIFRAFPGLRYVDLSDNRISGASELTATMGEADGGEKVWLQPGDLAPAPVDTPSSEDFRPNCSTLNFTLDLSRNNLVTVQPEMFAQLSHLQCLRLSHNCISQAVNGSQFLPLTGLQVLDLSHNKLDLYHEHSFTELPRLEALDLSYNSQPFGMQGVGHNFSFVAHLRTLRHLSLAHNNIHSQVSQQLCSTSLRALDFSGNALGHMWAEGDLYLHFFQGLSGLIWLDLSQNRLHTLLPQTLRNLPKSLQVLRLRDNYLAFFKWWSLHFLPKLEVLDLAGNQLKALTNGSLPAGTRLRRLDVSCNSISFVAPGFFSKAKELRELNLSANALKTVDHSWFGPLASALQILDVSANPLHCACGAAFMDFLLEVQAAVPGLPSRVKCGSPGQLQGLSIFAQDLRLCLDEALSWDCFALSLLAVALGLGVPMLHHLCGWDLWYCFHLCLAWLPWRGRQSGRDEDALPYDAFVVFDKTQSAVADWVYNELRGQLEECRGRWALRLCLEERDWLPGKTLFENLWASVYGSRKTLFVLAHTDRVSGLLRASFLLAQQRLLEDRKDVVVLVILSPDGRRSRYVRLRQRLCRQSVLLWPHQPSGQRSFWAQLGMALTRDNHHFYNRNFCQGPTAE
Procedure, shortened: (§1)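 Inhibitors are tested in dose response (0.05 nM–50 μM) on HEK-Blue reporter cells expressing human TLR7, TLR8 or TLR9. After 30 min at room temperature, each line is stimulated with its own agonist (gardiquimod 7.5 μM, R848 15.9 μM or ODN2006 5 nM, final) and SEAP is measured 22 h later.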

human TLR7 = biological target: T2, human TLR7 (Homo sapiens, UniProt Q9NYK1); assay: TLR7 inhibition reporter assay (HEK-Blue cells, secreted embryonic alkaline phosphatase reporter); conditions: HEK-Blue cells overexpressing human TLR7, stimulated with gardiquimod 7.5 μM; read-out: TLR 7 IC50
T2 construct: host or cells: HEK-Blue cells (HEK293-derived reporter line)
T2 sequence (Q9NYK1 27-1049): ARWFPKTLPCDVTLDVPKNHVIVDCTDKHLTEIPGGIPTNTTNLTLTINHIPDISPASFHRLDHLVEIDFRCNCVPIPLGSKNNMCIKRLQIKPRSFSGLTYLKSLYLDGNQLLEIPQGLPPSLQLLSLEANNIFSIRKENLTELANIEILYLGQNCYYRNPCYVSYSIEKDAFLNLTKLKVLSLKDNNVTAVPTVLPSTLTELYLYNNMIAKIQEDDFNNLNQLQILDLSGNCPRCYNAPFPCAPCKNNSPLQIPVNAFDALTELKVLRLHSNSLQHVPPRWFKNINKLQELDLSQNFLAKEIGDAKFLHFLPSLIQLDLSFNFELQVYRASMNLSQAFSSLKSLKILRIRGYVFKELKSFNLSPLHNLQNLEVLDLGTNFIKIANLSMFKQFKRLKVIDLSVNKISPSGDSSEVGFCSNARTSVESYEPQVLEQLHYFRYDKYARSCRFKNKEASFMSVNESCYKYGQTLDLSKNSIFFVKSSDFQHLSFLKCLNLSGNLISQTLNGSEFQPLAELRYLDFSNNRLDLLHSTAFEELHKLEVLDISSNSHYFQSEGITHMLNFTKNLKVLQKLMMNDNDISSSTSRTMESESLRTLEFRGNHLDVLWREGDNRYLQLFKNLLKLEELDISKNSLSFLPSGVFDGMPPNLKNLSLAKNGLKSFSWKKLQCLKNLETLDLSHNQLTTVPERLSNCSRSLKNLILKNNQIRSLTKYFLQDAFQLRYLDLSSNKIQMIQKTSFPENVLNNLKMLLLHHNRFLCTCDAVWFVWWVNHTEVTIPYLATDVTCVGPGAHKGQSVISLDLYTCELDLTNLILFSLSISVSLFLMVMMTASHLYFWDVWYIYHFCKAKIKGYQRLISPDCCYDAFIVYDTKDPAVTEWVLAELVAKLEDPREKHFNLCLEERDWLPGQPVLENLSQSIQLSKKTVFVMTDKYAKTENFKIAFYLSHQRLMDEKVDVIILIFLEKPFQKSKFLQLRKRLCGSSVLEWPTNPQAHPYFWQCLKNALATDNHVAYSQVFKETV
Procedure, shortened: as §1

human TLR8 = biological target: T3, human TLR8 (Homo sapiens, UniProt Q9NR97); assay: TLR8 inhibition reporter assay (HEK-Blue cells, secreted embryonic alkaline phosphatase reporter); conditions: HEK-Blue cells overexpressing human TLR8, stimulated with R848 15.9 μM; read-out: TLR 8 IC50
T3 construct: host or cells: HEK-Blue cells (HEK293-derived reporter line)
T3 sequence (Q9NR97 27-1041): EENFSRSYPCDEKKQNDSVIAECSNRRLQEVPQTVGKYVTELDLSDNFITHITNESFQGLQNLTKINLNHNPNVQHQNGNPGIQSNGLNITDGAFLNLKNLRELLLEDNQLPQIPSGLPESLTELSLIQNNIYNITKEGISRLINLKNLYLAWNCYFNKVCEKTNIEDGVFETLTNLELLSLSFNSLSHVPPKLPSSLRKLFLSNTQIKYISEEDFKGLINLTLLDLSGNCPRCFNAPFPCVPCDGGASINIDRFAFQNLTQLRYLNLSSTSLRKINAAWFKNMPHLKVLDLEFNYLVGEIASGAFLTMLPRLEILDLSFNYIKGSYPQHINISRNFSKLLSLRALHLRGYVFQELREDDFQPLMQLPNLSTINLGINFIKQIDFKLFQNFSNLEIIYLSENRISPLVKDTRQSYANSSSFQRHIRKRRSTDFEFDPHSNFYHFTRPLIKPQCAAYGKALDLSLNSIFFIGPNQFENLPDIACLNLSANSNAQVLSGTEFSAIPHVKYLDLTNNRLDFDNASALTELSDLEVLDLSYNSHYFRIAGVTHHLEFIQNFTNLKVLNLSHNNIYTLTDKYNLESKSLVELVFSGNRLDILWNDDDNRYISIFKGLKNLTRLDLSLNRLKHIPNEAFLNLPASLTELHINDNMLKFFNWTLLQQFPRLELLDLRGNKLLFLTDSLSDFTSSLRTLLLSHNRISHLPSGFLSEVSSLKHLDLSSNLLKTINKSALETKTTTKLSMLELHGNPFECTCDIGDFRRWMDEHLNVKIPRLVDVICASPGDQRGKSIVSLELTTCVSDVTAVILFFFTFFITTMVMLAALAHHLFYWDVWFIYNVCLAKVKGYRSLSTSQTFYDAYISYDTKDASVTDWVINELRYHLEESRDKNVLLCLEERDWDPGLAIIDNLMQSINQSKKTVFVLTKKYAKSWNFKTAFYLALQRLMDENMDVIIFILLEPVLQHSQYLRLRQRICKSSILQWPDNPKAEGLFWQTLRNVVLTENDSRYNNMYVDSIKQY
Procedure, shortened: as §1

[1] = HEK-Blue cells overexpressing human TLR9, stimulated with ODN2006 5 nM, read-out: TLR 9 IC50

Row | IC50 (human TLR9) | IC50 (human TLR9; [1]) | IC50 (human TLR7) | IC50 (human TLR8) | Compound
1 | 630 nM | 631 nM | 45600 nM | > 50000 nM | Cn1c(-c2ccc(S(C)(=O)=O)cc2)nc2c(F)c(C3CCN(C4CC5CCC(C4)N5CC4COC4)CC3)ccc21 (single isomer, unassigned) [Example 194, 4-fluoro-1-methyl-2-(4-(methylsulfonyl)phenyl)-5-(1-(8-(oxetan-3-ylmethyl)-8-azabicyclo[3.2.1]octan-3-yl)piperidin-4-yl)-1H-benzo[d]imidazole]
2 | 75 nM | 75 nM | 25600 nM | > 50000 nM | COCCN1C2CCC1CC(N1CCC(c3ccc4c(nc(-c5ccc(S(C)(=O)=O)cc5)n4C)c3F)CC1)C2 (single isomer, unassigned) [Example 199, 4-fluoro-5-(1-(8-(2-methoxyethyl)-8-azabicyclo[3.2.1]octan-3-yl)piperidin-4-yl)-1-methyl-2-(4-(methylsulfonyl)phenyl)-1H-benzo[d]imidazole]
3 | 380 nM | 380 nM | 47800 nM | > 50000 nM | COCCN1C2CCC1CC(N1CCC(c3ccc4c(nc(-c5ccc(S(C)(=O)=O)cc5)n4C)c3F)CC1)C2 (single isomer, unassigned) [Example 200, 4-fluoro-5-(1-(8-(2-methoxyethyl)-8-azabicyclo[3.2.1]octan-3-yl)piperidin-4-yl)-1-methyl-2-(4-(methylsulfonyl)phenyl)-1H-benzo[d]imidazole]
4 | 340 nM | 335 nM | > 50000 nM | > 50000 nM | Cn1c(-c2ccc(S(C)(=O)=O)cc2)nc2cc(C3CCN(C4CC5CCC(C4)N5C4COC4)CC3)cc(F)c21 (single isomer, unassigned) [Example 213, 7-fluoro-1-methyl-2-(4-(methylsulfonyl)phenyl)-5-(1-(8-(oxetan-3-yl)-8-azabicyclo[3.2.1]octan-3-yl)piperidin-4-yl)-1H-benzo[d]imidazole]
5 | 4700 nM | 4660 nM | > 50000 nM | > 50000 nM | Cn1c(-c2ccc(S(C)(=O)=O)cc2)nc2cc(C3CCN(C4CC5CCC(C4)N5C4COC4)CC3)cc(F)c21 (single isomer, unassigned) [Example 214, 7-fluoro-1-methyl-2-(4-(methylsulfonyl)phenyl)-5-(1-(8-(oxetan-3-yl)-8-azabicyclo[3.2.1]octan-3-yl)piperidin-4-yl)-1H-benzo[d]imidazole]
6 | 70 nM | 70 nM | 17000 nM | > 50000 nM | Cn1c(-c2ccc(S(C)(=O)=O)cc2)nc2cc(C3CCN(C4CC5CCC(C4)N5C4CCC4)CC3)cc(F)c21 (single isomer, unassigned) [Example 215, 5-(1-(8-cyclobutyl-8-azabicyclo[3.2.1]octan-3-yl)piperidin-4-yl)-7-fluoro-1-methyl-2-(4-(methylsulfonyl)phenyl)-1H-benzo[d]imidazole]
7 | 270 nM | 269 nM | 23200 nM | > 50000 nM | Cn1c(-c2ccc(S(C)(=O)=O)cc2)nc2cc(C3CCN(C4CC5CCC(C4)N5C4CCC4)CC3)cc(F)c21 (single isomer, unassigned) [Example 216, 5-(1-(8-cyclobutyl-8-azabicyclo[3.2.1]octan-3-yl)piperidin-4-yl)-7-fluoro-1-methyl-2-(4-(methylsulfonyl)phenyl)-1H-benzo[d]imidazole]
8 | 65 nM | 65 nM | 18500 nM | > 50000 nM | CC(C)CN1C2CCC1CC(N1CCC(c3ccc4nc(-c5ccc(S(C)(=O)=O)cc5)[nH]c4c3F)CC1)C2 (single isomer, unassigned) [Example 219, 7-fluoro-6-(1-(8-isobutyl-8-azabicyclo[3.2.1]octan-3-yl)piperidin-4-yl)-2-(4-(methylsulfonyl)phenyl)-1H-benzo[d]imidazole]
